Experimental data taken from patent US6699676B1, “Uses of ouabain and ouabain-like molecules in apoptosis related pathologies” (Corporation du Centre de Recherche du Centre, Hospitalier …, priority 1999, dated 2004).

Assays:
[1] = test system: Jurkat cells; assay: Chromatin cleavage assay in Jurkat cells; type: cell-based, human; conditions: for content of chromatin fragments: 3 hours, 0.25 μM staurosporine or 350 mM mannitol (from 2.6±1.2); for Chromatin fragments (%): 1 mM, 2 hours + 7 hours
Experimental: FIG. 4. Effect of ouabain on chromatin cleavage in Jurkat cells. (A) Kinetics of accumulation of chromatin fragments in control (curves 1, 3) and ouabain-treated (curves 2, 4) cells in the absence (curves 1, 2) or presence (curves 3, 4) of 100 ng/ml of anti-human Fas (mouse monoclonal IgM, Upstate Biotechnology, Lake Placid, N.Y.); (B) Content of chromatin fragments in Jurkat cells subjected to 3 hours of incubation with or without 1 mM ouabain, 0.25 μM staurosporine and 350 mM mannitol. In both experiments, ouabain was added 2 hours before triggering of apoptosis. Mean values±S.E. obtained in experiments performed in triplicate are given.
(§1) To estimate chromatin cleavage, cells were incubated for 2 hours in the presence of 10% calf serum in the control solution (DMEM, [Na^+]=137 mM; [K^+]=5 mM—line 1) or under equimolar substitution of NaCl with KCl ([Na^+]=14 mM; [K^+]=128 mM—line 2) with or without 1 mM ouabain and then for an additional 7 hours at the same media with or without 100 ng/ml Fas ligand (Fas-L). Intracellular Na^+ and K^+ content was measured as steady-state distribution of isotopes after 24 hours preincubation of cells in control Na^+-enriched solution containing 0.5 μCi/ml ^86Rb or 2 μCi/ml ^22Na, and an additional 6 hours incubation in Na^+—(line 1) or K^+—(line 2) enriched medium containing 10% calf serum, isotopes with the same specific activity with or without 1 mM ouabain. For more details see Experimental Procedures. Mean values±S.E. obtained in experiments performed in triplicate are given. ★, #p<0.01 and 0.001 compared to ouabain-untreated cells.
Cells. VSMC were obtained by explant methods from aortas of 10- to 13-week-old male rats as described previously (17), cultured in DMEM with 10% calf serum, 100 U/ml penicillin, 100 µg/ml streptomycin and used between 10 to 16 passages. Cells transfected with c-myc (VSMC-MYC) and E1A-adenovirus (VSMC-E1A) were obtained in accordance with a previously-described protocol (18,19) and were cultured in the same medium with the addition of 500 µg/ml genticin. Jurkat cells were obtained from the American Type Culture Collection and cultured in RPMI 1640 medium supplied with 10% calf serum, antibiotics, sodium pyruvate, glutamate and β-mercaptoethanol.
Chromatin cleavage assay. Chromatin cleavage in VSMC was estimated by a technique described previously in detail (10). Briefly, VSMC grown in 24-well dishes were labeled for 24 hours in serum-supplied DMEM with [^3H]-thymidine (1 μCi/ml), washed with 2×2 ml of DMEM and incubated in serum-supplied DMEM. In 48 hr, the cells were pretreated with ouabain or K^+-depleted medium as indicated in FIG. 2 and Table 3, washed twice with serum-containing medium and incubated with 0.5 ml of medium with or without ouabain and containing different inducers of apoptosis. To measure the content of chromatin fragments, the cells were transferred on ice and 1 ml of ice-cold lysed buffer (10 mM EDTA, 10 mM tris-HCl, 0.5% triton X100 (pH 8.0)) was added. After 15 min, the cell lysate was transferred to Ependorf tubes, sedimented (12,000 rpm, 10 mm), and 1 ml of supernatant was transferred for the measurement of radioactivity (A1t). The remaining radioactivity from pellets and wells was extracted with 0.5 ml of 1% SDS/4 mM EDTA mixture, combined and counted (A2). Chromatin cleavage was quantified as the content of chromatin fragments normalized by total content of [^3H]-labeled DNA in accordance with the equation [1.5×(A1t−A1o)/(A2+A1t−1.5A1o)]×100% where A1o is the value of A1t before induction of apoptosis. To measure chromatin fragmentation in [^3H]-thymidine-labeled Jurkat cells, they were resuspended at a density of 10^6 cells/ml in medium containing 10% calf serum and the additions indicated in FIG. 4 and Table 4. At the time intervals shown in FIG. 4, 100 μl of cell suspension was mixed with 100 μl of PBS contairung 0.5% triton X100, and the content of chromatin fragments was measured as described previously in detail (20).

[2] = test system: Jurkat cells; assay: Intracellular Na+ and K+ content in Jurkat cells; type: cell-based, human; conditions: for Intracellular cations K^+i / Intracellular cations Na^+i: ouabain-treated Jurkat cells, 1 mM, 6 hours
Experimental: FIG. 1. Kinetics of modulation of intracellular Na^+ (1, 2) and K^+ (3, 4) content by ouabain in VSMC-E1A (1, 3) and Jurkat cells (2, 4). Cells were preincubated for 24 hours in the presence of 10% calf serum in control medium consisting of 91 mM NaCl, 5 mM KCl, 0.9 mM NaH2PO4, 44 mM NaHCO3, 1.8 mM CaCl2, 0.8 mM MgCl2, 33 mM HEPES and 5 mM D-glucose (pH 7.4) with 2 μCi/ml of ^22Na or 0.5 μCi/ml ^86Rb, and 1 mM ouabain was added at the time interval indicated by the arrow. At specific time-points, intracellular Na^+ and K content + was measured as described in Experimental Procedures. Mean values±S.E. obtained in experiments performed in quadruplicate (VSMC-E1A) or triplicate (Jurkat cells) are given.
as §1
Intracellular Na^+ and K^+ content. The intracellular content of exchangeable Na^+ and K^+ was measured as steady-state distribution of extra- and intracellular ^22Na and ^86Rb, as described previously in detail (22). Briefly, to establish the steady-state distribution of isotopes, VSMC growing in 12× (^22Na) or 24× (^86Rb) well plates or ˜10^6 Jurkat cells in suspension were preincubated for 24 hours in DMEM containing 10% calf serum and 0.5 μCi/ml ^86RbCl or 2 μCi/ml ^22NaCl and then treated in media with compositions shown in FIG. 1 and Tables 3 and 4 and with the same specific radioactivity. At the end of incubation, the VSMC were transferred on ice, washed 4 times with 2 ml of ice-cold medium W, containing 100 mM MgCl2 and 10 mM HEPES-tris buffer (pH 7.4), and lysed with SDS/EDTA mixture. One ml of Jurkat cell suspension was applied on a Whatman type C filter with the cells being washed with 3×5 ml aliquots of ice-cold medium W under negative pressure of 20-30 mm Hg. Radioactivity of the incubation medium and cell lysate was measured with a liquid scintillation analyzer and intracellular cation content was determined as A/am, where A was the radioactivity of the samples (cpm), a was the specific radioactivity of Na^+ and K^+(^86Rb) in the medium (cpm/nmol), and m was the protein content determined by Lowry methods.

[3] = test system: VSMC; assay: ATP content in VSMC; conditions: 8 hours incubation with ouabain, data not shown

SMILES | content of chromatin fragments ([1]; Jurkat cells) | increase of the content of intracellular Na^+ ([2]; ouabain treated Jurkat lymphocytes, 1 mM (FIG. 1, curve 2)) | Intracellular cations K^+i ([2]; medium [Na+]o=14, [K+]o=128 mM) | Intracellular cations Na^+i ([2]; medium [Na+]o=14, [K+]o=128 mM) | Intracellular cations K^+i ([2]; medium [Na+]o=137, [K+]o=5 mM) | Intracellular cations Na^+i ([2]; medium [Na+]o=137, [K+]o=5 mM) | chromatin cleavage in the absence of triggers of apoptosis ([1]; Jurkat cells, 2 hours ouabain pretreatment, subsequent 3 hours) | increment of chromatin cleavage triggered by Fas ligand, staurosporine or mannitol ([1]; Jurkat cells, ouabain, 3 hours treatment with trigger) | Chromatin fragments (%) ([1]; ouabain-treated Jurkat cells, +Fas-L 100 ng/ml, medium [Na+]o=14, [K+]o=128 mM) | Chromatin fragments (%) ([1]; ouabain-treated Jurkat cells, +Fas-L 100 ng/ml, medium [Na+]o=137, [K+]o=5 mM) | Chromatin fragments (%) ([1]; ouabain-treated Jurkat cells, no Fas-L, medium [Na+]o=14, [K+]o=128 mM) | Chromatin fragments (%) ([1]; ouabain-treated Jurkat cells, no Fas-L, medium [Na+]o=14, [K+]o=128 mM, listed as ouabain) | Chromatin fragments (%) ([1]; ouabain-treated Jurkat cells, no Fas-L, medium [Na+]o=137, [K+]o=5 mM) | Chromatin fragments (%) ([1]; ouabain-treated Jurkat cells, no Fas-L, medium [Na+]o=137, [K+]o=5 mM, listed as ouabain) | increment of the content of chromatin fragments triggered by Fas ligand ([1]; ouabain-treated Jurkat cells, 7-hr incubation) | ATP content [3]
CN[C@@H]1C[C@H]2O[C@@](C)([C@@H]1OC)n1c3ccccc3c3c4c(c5c6ccccc6n2c5c31)C(=O)NC4 [staurosporine] | 19.7±4.3% | – | – | – | – | – | – | – | – | – | – | – | – | – | – | –
OC[C@@H](O)[C@@H](O)[C@H](O)[C@H](O)CO [mannitol] | 15.6±2.9% | – | – | – | – | – | – | – | – | – | – | – | – | – | – | –
C[C@@H]1O[C@@H](O[C@H]2C[C@@H](O)[C@]3(CO)[C@H]4[C@H](O)C[C@]5(C)[C@@H](C6=CC(=O)OC6)CC[C@]5(O)[C@@H]4CC[C@]3(O)C2)[C@H](O)[C@H](O)[C@H]1O [Ouabain, 1β,3β,5,11α,14,19-hexahydroxycard 20 [22]-enolide 3-[6-deoxy-α-L-mannopyrano-sidel]] | – | 10 fold | 498 nmol/mg protein | 204 nmol/mg protein | 107 nmol/mg protein | 1137 nmol/mg protein | did not significantly modify chromatin cleavage | did not observe any effect | 22.7% | 42.7% | 5.7% | 5.7±2.0% | 16.0% | 16.0±4.6% | 26.2±4.7% | did not observe any significant effect
